Tests used:
[1] = test system: MHC class I molecules of T1 cells (human lymphoma cell line 174×CEM.); assay: Effect on expression of MHC class I from T1 cells (flow cytometry, MFI); assay type: cell-based; conditions: 3 days culture
Method in brief: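 EC20 is the compound level that lowers MHC class I MFI by 20% relative to compound-free cultures. Read-out was flow cytometry after FITC W6/32 staining.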

[2] = test system: MHC class I molecules of human peripheral blood-derived dendritic cells; assay: Effect on expression of MHC class I molecules from human peripheral blood-derived dendritic cells; assay type: cell-based; conditions: dendritic cells matured with TNF-α, 3 days; read-out: EC50 (reduction of 50% of the number of cells wherein MHC class I molecules were highly expressed)
Excerpt: Effect on Expression of MHC Class I Molecules from Human Peripheral Blood-Derived Dendritic Cells
Monocytes were isolated from human peripheral blood by the specific gravity centrifugation method. Thereafter, using mouse anti-human CD14 antibody-binding microbeads and a magnetic cell separation system (Miltenyi Biotec), CD14 positive cells were separated from the peripheral blood monocytes. The separated CD14 positive cells were suspended in an RPMI 1640 medium containing 10% FBS, and the suspension was then inoculated in a 6-well plate, resulting in a concentration of 1.0×10^6 cells/well. It was cultured at 37° C. for 20 minutes in an incubator containing 5% carbon dioxide. […] Thereafter, RPMI 1640 containing a 500 U/ml human recombinant […] (hereinafter referred to as GM-CSF; Anapure Bioscientific), 50 ng/ml human recombinant interleukin 4 (hereinafter referred to as IL-4; Pepro Tech), and 10% FBS, was added to the remaining suspension at a concentration of 2 ml/well. The obtained mixture was then cultured at 37° C. in an incubator containing 5% carbon dioxide. When adhesive CD14 positive cells are cultured in the presence of GM-CSF and IL-4, the CD14 positive cells were differentiated into non-adhesive immature dendritic cells. After the cells had been cultured for 7 days, non-adhesive cells were recovered to obtain immature dendritic cells. Using a 6-well plate, the immature dendritic cells (2.5×10^5 cells/well) were cultured in RPMI 1640 containing a 100 U/ml human recombinant tumor necrosis factor-α (hereinafter referred to as TNF-a; Pepro Tech), a test compound, and 10% FBS, at 37° C. for 3 days in an incubator containing 5% carbon dioxide. The dendritic cells became mature as a result of the presence of TNF-α, but in the present test, a test compound was allowed to simultaneously act on the cells. The mature dendritic cells were then stained with fluoroisothiocyanate-labeled mouse anti-human MHC class I monoclonal antibody (an antibody generated from the cell line W6/32 (ATCC No. CRL 1991)). The rate of the number of cells wherein MHC class I molecules were highly expressed to the total number of cells was measured by flow cytometry. The reduction rate of the number of cells wherein MHC class I molecules were highly expressed was calculated using the following formula (2), and the concentrations of test compounds necessary for reduction of 50% (EC50 values) were obtained.
[formula] • Eexp: (The number of cells, wherein MHC class I molecules are highly expressed, in cultured cells containing test compound)/(the total number of cells) • Cexp: (The number of cells, wherein MHC class I molecules are highly expressed, in cultured cells containing no test compounds)/(the total number of cells)

[3] = test system: human dendritic cells cultured with human allogenic T cells; assay: Effect on the ability of human dendritic cells to induce the growth of allogenic T cells ([3H]-thymidine incorporation); assay type: cell-based; conditions: Homo sapiens; dendritic cells treated 3 days with test compound and TNF-α, then 5 days with allogenic T cells; read-out: IC50 (inhibition of DNA synthesis of lymphocytes)
Procedure: Effect on the Ability of Human Dendritic Cells to Induce the Growth of Allogenic T Cells
Immature dendritic cells were cultured with a test compound and TNF-α for 3 days by the same method as that described in Test Example 2. The obtained dendritic cells (2.5×10^3 cells/50 μl/well) were cultured together with human allogenic T cells (2.0×10^5 cells/150 μl/well) in a 96-well flat bottom plate at 37° C. for 5 days in an incubator containing 5% carbon dioxide. Thereafter, [^3H]-thymidine (Amersham Pharmacia Biotech) was added thereto at an amount of 1 μCi/10 μl/well, 16 hours before completion of the culture. After completion of the culture, cells were captured on a glass filter using a cell harvester (Skatron Instrument) and then dried. Thereafter, Scintillator ACS-II (Amersham Pharmacia Biotech) was added thereto, and the radioactivity of [^3H]-thymidine incorporated into the cells were then measured using a liquid scintillation counter. The inhibition rate of the DNA synthesis of lymphocytes was calculated using the following formula (3). Thereafter, the concentration of a test compound necessary for inhibition of 50% (IC50 value) was obtained.
[formula] • Eexp: The amount of [^3H]-thymidine incorporated into cultured cells containing test compound • Cexp: The amount of [^3H]-thymidine incorporated into cultured cells containing no test compounds

BDF1 mice = assay: Effect on graft versus host (GVH) reaction, spleen weight measurement method; assay type: in vivo, mouse; conditions: subcutaneous, twice a day for 7 days
Procedure: Effect on Graft Versus Host (GVH) Reaction
The effect of the compound on the GVH reaction was determined in accordance with the spleen weight measurement method of Simonsen et al. (Simonsen et al., Annals of the New York Academy of Sciences, p. 73 (1978)). Splenic cells were prepared from C57BL/6 mice (Charles River Japan, Inc.; female; 10-week-old), and the cells (5.0×10^6 cells) were transferred into the abdominal cavity of each of BDF1 mice (Charles River Japan; […]). From the day of transferring of the above cells, the test compound having each diluted concentration or a 5% glucose solution used as a solvent was subcutaneously administered to the BDF1 mice twice a day for 7 consecutive days. Eight days after the transferring of the above cells, the spleen weight of each of the BDF1 mice was measured. The reduction rate of the spleen weight was calculated using the following formula (6). The amount of the test compound necessary for reduction of 50% (ED50 value) was obtained.
[formula] • Eexp: Spleen weight of mouse to which test compound was administered • Cexp: Spleen weight of mouse to which solvent was administered

BALB/c mice [4] = assay: Effect on mouse delayed-type hypersensitivity reaction (DTH reaction), swelling of the sole; assay type: in vivo; conditions: Intraperitoneal, administration period 7 days, 100 mg/kg/single administration
Procedure: Effect on Mouse Delayed-Type Hypersensitivity Reaction (DTH Reaction)
1.0×10^5 sheep erythrocytes (Nippon Seibutsu Zairyo Center, Co., Ltd.) were administered to each of BALB/c mice (Charles River Japan, Inc.; female; 8-week-old) by intravenous injection for sensitization. From the day of administration of the sheep erythrocytes, a test compound was administered to the mouse. As a control, a 0.5% carboxymethyl cellulose (CMC)-Na solution and a normal saline solution used as solvents were administered to the same type of mouse via oral administration or intraperitoneal administration. Five days after the antigen sensitization, 1.0×10^8 sheep erythrocytes were subcutaneously injected into the sole of the mouse. 24 hours later, the thickness of the sole was measured. The value obtained by subtracting the mean value of the thicknesses of the soles of mice, to which a normal saline solution had been administered instead of the sheep erythrocytes, from the above measurement value, was defined as swelling of the sole generated as a result of the DTH reaction. The inhibition rate of the swelling of the sole caused by the DTH reaction was calculated using the following formula (5). The amount of the test compound necessary for inhibition of 50% (ED50 value) was obtained as the activity of the test compound to inhibit the DTH reaction. It is to be noted that cyclosporin A was used as a positive control.
[formula] • Eexp: Swelling of sole of mouse to which test compound was administered • Cexp: Swelling of sole of mouse to which solvent was administered

BALB/c mice [5] = assay: Effect on mouse plaque forming cells (PFCs) to sheep erythrocytes; assay type: in vivo; conditions: Intraperitoneal, 25 mg/kg/single administration, twice a day for 4 days
Procedure: Effect on Mouse Plaque Forming Cells (PFCs)
Sheep erythrocytes (Nippon Seibutsu Zairyo Center, Co., Ltd.) were intraperitoneally administered to each of BALB/c mice (Charles River Japan, Inc.; female; 8-week-old) at an amount of 1.0×10^8 cells. Thereafter, a test compound was administered thereto twice a day for 4 days after the first administration (only once on the first day) (n=4). On the day subsequent to completion of the administration of the test compound, splenic cells were prepared from the mouse, and the number of PFCs to the sheep erythrocytes was counted by the method of Cunninham (Cunninham, A. J. et al., Immunology, vol. 14, p. 599 (1968)). The number of PFCs per number of splenic cells of 1.0×10^6 was obtained. The reduction rate of the number of PFC in the mouse to which the test compound had been administered, to the number of PFCs in a control mouse to which the test compound had not been administered but only a solvent had been administered, was calculated using the following formula (4).
[formula] • Eexp: The number of PFCs per 1×10^6 splenic cells of mouse to which test compound was administered • Cexp: The number of PFCs per 1×10^6 splenic cells of mouse to which solvent was administered

SMILES	EC20 (concentration necessary for suppressing 20% of the expression level of MHC class I molecules) [1] [nM]	EC50 [2] [nM]	IC50 [3] [nM]	Inhibition rate (%) (reduction rate of the spleen weight) (BDF1 mice; 25 × 2 mg/kg/single administration)	Inhibition rate (%) (reduction rate of the spleen weight) (BDF1 mice; 50 × 2 mg/kg/single administration)	Inhibition rate (%) of swelling of the sole (BALB/c mice [4]) [%]	Reduction rate (%) of number of PFCs (BALB/c mice [5]) [%]
COc1ccc(-c2ccnc3nc(NC(=O)NCc4cccnc4)nn23)cc1 [Example 039]	300	540	1520	14.1	29.5	–	–
COc1ccc(-c2ccnc3nc(NC(=O)N[C@H](C(=O)NCCN4CCCCC4)C(C)C)nn23)cc1.Cl [Example 135]	810	–	–	–	–	40.2	–
COc1ccc(-c2ccnc3nc(NC(=O)N[C@H]4CC[C@H](O)CC4)nn23)cc1 [Example 037]	200	200	1360	–	–	–	31.2

Reference: patent publication US7598244B2, “[1,2,4]triazolo[1,5,a]pyrimidin-2-ylurea derivative and use thereof” (Nippon Kayaku Kabushiki Kaisha, priority 2003, dated 2009)
